The record followed here is US12161647B2, “Treating hearing loss” (Massachusetts Eye and Ear Infirmary, priority 2012, dated 2024).

This assay relates to deafened cochlea of Sox2-CreER; mT/mG mice. Kind of assay: In vivo lineage tracing of Sox2-positive supporting cells after round window administration. On the set-up: species or system mouse. As to conditions: one month after LY411575 treatment, left ear; none in control ears. The source says: For the experiments using inner ear spheres, C57BL/6 (Jackson Labs) or Math1-nGFP reporter mouse (19) (a gift from Jane Johnson, University of Texas) of both sexes were used. To create organ of Corti explants with ablated hair cells, Mos-iCsp3 mice (20) were crossed with Pou4f3-Cre mice (6) (a gift from Douglas Vetter, Tufts University). For all in vivo experiments, we used 4-week-old Cre reporter line, mT/mG (Jackson Labs), crossed to a Sox2-CreER mouse (47) (a gift from Konrad Hochedlinger, Mass General Hospital). After genotyping, double transgenic animals were used for lineage tracing. We used young adult wild-type littermates of the mT/mG; Sox2-CreER mice to prevent strain effects in the response to noise, which are known to vary depending on background (22, 48). Mice were genotyped by PCR. All protocols were approved by the Institutional Animal Care and Use Committee of Massachusetts Eye and Ear Infirmary or the by the ethics committee of Keio University Union on Laboratory Animal Medicine, in compliance with the Public Health Service policy on humane care and use of laboratory animals.
4-week-old mice were exposed free-field, awake and unrestrained, in a small reverberant chamber (22). Acoustic trauma was produced by a 2 h exposure to an 8-16 kHz octave band noise presented at 116 dB SPL. […]

The structures appear in SMILES notation.

`C[C@H](NC(=O)[C@@H](O)c1cc(F)cc(F)c1)C(=O)N[C@@H]1C(=O)N(C)c2ccccc2-c2ccccc21` [LY411575, N-2((2S)-2-(3,5-difluorophenyl)-2-hydroxyethanoyl)-N1-((7S)-5-methyl-6-oxo-6,7-dihydro-5H-dibenzo[b,d]azepin-7-yl)-l-alaninamide]: the “myosin VIIa-positive cells also expressing GFP (Sox2 lineage)” value is listed as “numerous”.
